The results in this text go back to PubChem BioAssay (NCI).

Structures are written as SMILES. Values joined by “and” are separate entries in the source; they are usually repeats but may differ in a detail not shown here. Equal entries are not always repeated.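 Interpolation was linear, between the two tested concentrations surrounding the appropriate level; five concentrations were tested over 48 hours in 96-well plates. GI50 marks 50% less growth. The concentration for full growth arrest is given as TGI.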 Bounds are passed on as bounds.

Among the test systems are K-562 leukemia; BT-549 breast; NCI-H460 lung; KM12 colon; SK-OV-3 ovarian; SK-MEL-5 melanoma; HOP-62 NSCLC; EKVX NSCLC; RPMI-8226 leukemia; RXF 393 renal.
What all share (test): growth of human tumour cells (NCI), 48 h

`Nc1cc(C(F)(F)F)c(-c2nc(N3CCOCC3)nc(N3CCOCC3)n2)cn1`: the GI50 in the test with K-562 leukemia was 3.65 µM; in the test with BT-549 breast, 0.265 µM; in the test on NCI-H460 lung, 0.299 µM; with KM12 colon, 0.835 µM; in the test on SK-OV-3 ovarian, 0.131 µM; in the test with SK-MEL-5 melanoma, 0.384 µM. For the same compound, the GI50 in the test on HOP-62 NSCLC is 0.643 µM; in the test on EKVX NSCLC, 0.31 µM; in the test on RPMI-8226 leukemia, 0.709 µM; in the test on RXF 393 renal it was 0.241 µM. The TGI in the test with K-562 leukemia was greater than 100 µM; with BT-549 breast, 3.84 µM; in the test with NCI-H460 lung, greater than 53.3 µM; in the test with KM12 colon, 59.9 µM; in the test on SK-OV-3 ovarian, 0.598 µM; in the test with SK-MEL-5 melanoma, 2.54 µM. Moreover, the TGI in the test on HOP-62 NSCLC is 16.2 µM; in the test with EKVX NSCLC it was 5.02 µM; in the test with RPMI-8226 leukemia, greater than 75.9 µM; in the test on RXF 393 renal, 1.07 µM.
`CCOC(=O)C#Cc1c(C(=O)OCC)nnn1[C@@H]1O[C@H](COC)[C@@H](OC)[C@H]1OC`: the GI50 in the test on K-562 leukemia is 1.85 µM; in the test on BT-549 breast, 13.1 µM; in the test on NCI-H460 lung, 17.8 µM; with KM12 colon, 16.7 µM; with SK-OV-3 ovarian it was 67.5 µM; in the test on SK-MEL-5 melanoma it was 14.3 µM. In addition, the GI50 in the test with HOP-62 NSCLC is 25.7 µM; in the test with EKVX NSCLC it was 16.3 µM; in the test with RPMI-8226 leukemia, 4.16 µM; in the test on RXF 393 renal, 1.97 µM. The TGI in the test with K-562 leukemia was 7.97 µM; in the test with BT-549 breast, 26 µM; in the test on NCI-H460 lung, 36.2 µM; in the test with KM12 colon, 33.3 µM; with SK-OV-3 ovarian, greater than 100 µM; in the test on SK-MEL-5 melanoma it was 27.4 µM. For the same compound, the TGI with HOP-62 NSCLC came to 63.1 µM; in the test on EKVX NSCLC it was 32.9 µM; in the test on RPMI-8226 leukemia, 17.2 µM; with RXF 393 renal, 4.14 µM.
For the compound `O=S(=O)(O)C(c1ccccc1)C(O)c1ccccc1` (stereo not given), the TGI in the test on K-562 leukemia, in the test on BT-549 breast, with NCI-H460 lung, in the test on KM12 colon, in the test on SK-OV-3 ovarian and in the test on SK-MEL-5 melanoma was greater than 100 µM throughout. Besides, the TGI in the test with HOP-62 NSCLC, in the test on EKVX NSCLC, in the test on RPMI-8226 leukemia and in the test with RXF 393 renal was greater than 100 µM in each case.
Turning to `CC(=O)O[C@H]([C@H](OC(C)=O)[C@H](C)OC(C)=O)[C@@H](/C=C/[C@H]1CC=CC(=O)O1)OC(C)=O`, the GI50 in the test with K-562 leukemia is greater than 100 µM; with BT-549 breast it was 21.9 µM; with NCI-H460 lung, 59.4 µM; in the test on KM12 colon, greater than 100 µM; with SK-OV-3 ovarian it was greater than 100 µM; in the test on SK-MEL-5 melanoma it was 33.2 µM. Moreover, the GI50 is 48.5 µM with HOP-62 NSCLC, greater than 100 µM in the test on EKVX NSCLC, 26.3 µM in the test on RPMI-8226 leukemia and greater than 100 µM in the test with RXF 393 renal. The TGI in the test on K-562 leukemia was greater than 100 µM; in the test with BT-549 breast, 72.6 µM; in the test with NCI-H460 lung, greater than 100 µM; in the test with KM12 colon, greater than 100 µM; in the test on SK-OV-3 ovarian it was greater than 100 µM; in the test with SK-MEL-5 melanoma, greater than 100 µM. For the same compound, the TGI was greater than 100 µM in the test on HOP-62 NSCLC, greater than 100 µM with EKVX NSCLC, 89.8 µM in the test with RPMI-8226 leukemia and greater than 100 µM in the test on RXF 393 renal.
On to `COc1ccc([C@@H]2[C@@H](Oc3ccccc3)C(=O)N2c2cc(OC)c(OC)c(OC)c2)cc1F`, for which the GI50 in the test on K-562 leukemia is 0.0417 µM; in the test with BT-549 breast, 0.0342 µM; with NCI-H460 lung it was 0.155 µM; with KM12 colon it was 0.088 µM; in the test on SK-OV-3 ovarian, 0.38 µM; with SK-MEL-5 melanoma, 0.0504 µM. Moreover, the GI50 is 0.0811 µM in the test with HOP-62 NSCLC, 0.465 µM in the test with EKVX NSCLC, 0.207 µM with RPMI-8226 leukemia and 0.0593 µM with RXF 393 renal. The TGI in the test on K-562 leukemia was greater than 100 µM; with BT-549 breast, greater than 100 µM; in the test with NCI-H460 lung, greater than 100 µM; with KM12 colon, greater than 100 µM; in the test on SK-OV-3 ovarian, greater than 100 µM; in the test with SK-MEL-5 melanoma, 1.49 µM. The TGI in the test with HOP-62 NSCLC was greater than 100 µM; with EKVX NSCLC, greater than 100 µM; in the test on RPMI-8226 leukemia it was 5.64 µM; in the test with RXF 393 renal it was greater than 100 µM.
For the compound `CC1(C)CC2=NO[Se]3=C2C(=NO3)C1`, the TGI stood at 12.4 µM in the test on K-562 leukemia; 7.28 µM with BT-549 breast; 4.05 µM with NCI-H460 lung; 13.8 µM in the test on KM12 colon; 13.1 µM in the test with SK-OV-3 ovarian; 3.28 µM in the test with SK-MEL-5 melanoma. Further, the TGI was found to be 10.8 µM in the test with HOP-62 NSCLC, 9.68 µM in the test with EKVX NSCLC, 18.5 µM in the test with RPMI-8226 leukemia and 9.18 µM in the test on RXF 393 renal.
As for `N=C(N)SCc1ccc(Cl)c2ccccc12` (tested in a mixture with another compound), the TGI with K-562 leukemia was 19.4 µM and 10.1 µM; in the test with BT-549 breast, 29.5 µM and 30.8 µM; in the test on NCI-H460 lung, 22.4 µM and 21 µM; in the test on KM12 colon, 28.3 µM and 27.7 µM; with SK-OV-3 ovarian, 25.9 µM and 28.9 µM; in the test on SK-MEL-5 melanoma, 25.6 µM and 21.6 µM. Besides, the TGI in the test on HOP-62 NSCLC is 24.3 µM and 30.5 µM; with EKVX NSCLC it was 24.5 µM and 27.5 µM; in the test with RPMI-8226 leukemia it was 18.5 µM and 7.98 µM; in the test on RXF 393 renal, 20.5 µM and 22.7 µM.
